Laboratory results taken from patent US11638428B2, “Nematocidal heterocyclic amides” (CORTEVA AGRISCIENCE LLC, priority 2015, dated 2023).

Tested on: cucumber seedlings
Test: Test A: phytotoxicity to the cucumber seedlings of the test units
Format: in vivo
Conditions: 500 ppm active ingredient applied to soil
Protocol: Control of the southern root-knot nematode (Meloidogyne incognita) through contact and/or systemic means was evaluated in test units consisting of small open containers filled with a sandy soil mixture and cucumber seedlings. Test compounds were formulated using a solution containing 50% acetone and 50% water. […] Each test was replicated 3 times. After treatment, the test units were allowed to dry for 1 hour, after which time about 400 second-stage juvenile (J2) larvae and 800 eggs were pipetted into the soil. The test units were held at 27° C. and watered as needed for 7 days. Nematocidal efficacy was determined by the amount of root gall formation observed when compared to an untreated control. No gall formation was indicative of 100% nematode control. […] No nematode control rating was given to compounds showing significant phytotoxicity.

## C[C@H](NC(=O)c1ccoc1Cl)C(C)(C)C [Compound 40, 2-chloro-N-[(1S)-1,2,2-trimethylpropyl]-3-furancarboxamide]
  phytotoxicity: no significant phytotoxicity

## CCCC(C)NC(=O)c1ccoc1C (stereo not shown) [Compound 5]
  phytotoxicity: no significant phytotoxicity

## CC[C@H](C)NC(=O)c1ccoc1Cl [Compound 77]
  phytotoxicity: no significant phytotoxicity

## Cc1occc1C(=O)NC(C)C [Compound 3]
  phytotoxicity: no significant phytotoxicity

## Cc1occc1C(=O)NC1(C2CC2)CC1 [Compound 47]
  phytotoxicity: no significant phytotoxicity

## CC(NC(=O)c1ncsc1I)C1CC1 (stereo not shown) [Compound 56]
  phytotoxicity: no significant phytotoxicity

## CC(NC(=O)c1ccoc1Cl)C1CC1 (racemic) [Compound 11]
  phytotoxicity: no significant phytotoxicity

## COCC(C)(C)NC(=O)c1ccoc1Cl [Compound 12]
  phytotoxicity: no significant phytotoxicity

## CC(NC(=O)c1sccc1C(C)(C)C)C(C)(C)C (stereo not shown) [Compound 90]
  phytotoxicity: no significant phytotoxicity

## Cc1ncsc1C(=O)NC(C)C1CC1 (stereo not shown) [Compound 70]
  phytotoxicity: no significant phytotoxicity

## Cc1occc1C(=O)N[C@H](C)C1CC1 [Compound 36]
  phytotoxicity: no significant phytotoxicity

## CC(NC(=O)c1ccoc1Cl)C(F)(F)F (stereo not shown) [Compound 24]
  phytotoxicity: no significant phytotoxicity

## CC(NC(=O)c1ccoc1Cl)C1CCCCC1 (stereo not shown) [Compound 21]
  phytotoxicity: no significant phytotoxicity

## CCCC(C)NC(=O)c1ccoc1Br (stereo not shown) [Compound 34]
  phytotoxicity: no significant phytotoxicity

## CCC(NC(=O)c1ccoc1Cl)C1CC1 (stereo not shown) [Compound 53]
  phytotoxicity: no significant phytotoxicity

## Cc1occc1C(=O)NC(C)CC(C)(C)C (stereo not shown) [Compound 80]
  phytotoxicity: no significant phytotoxicity

## Cc1ncc(C(=O)NC(C)C2CC2)s1 (stereo not shown) [Compound 60]
  phytotoxicity: no significant phytotoxicity

## CC(NC(=O)c1sccc1C#N)C(C)(C)C (stereo not shown) [Compound 95]
  phytotoxicity: no significant phytotoxicity

## CSCC(C)(C)NC(=O)c1ccoc1Cl [Compound 14]
  phytotoxicity: no significant phytotoxicity

## CC(C)CC(C)NC(=O)c1ccoc1Cl (stereo not shown) [Compound 19]
  phytotoxicity: no significant phytotoxicity

## CC(NC(=O)c1ccoc1Br)C(C)(C)C (stereo not shown) [Compound 35]
  phytotoxicity: no significant phytotoxicity

## C[C@H](NC(=O)c1ccoc1Br)C(C)(C)C [Compound 42]
  phytotoxicity: no significant phytotoxicity

## Cc1occc1C(=O)NC(C)(C)C1CC1 [Compound 7]
  phytotoxicity: no significant phytotoxicity

## Cc1occc1C(=O)N[C@H](C)C(C)(C)C [Compound 39]
  phytotoxicity: no significant phytotoxicity

## CC(C)(C)CC(C)(C)NC(=O)c1ccoc1Cl [Compound 18]
  phytotoxicity: no significant phytotoxicity

## CCC(NC(=O)c1ccoc1C)C1CC1 (stereo not shown) [Compound 67]
  phytotoxicity: no significant phytotoxicity

## Cc1occc1C(=O)NC(C1CC1)C1CC1 [Compound 46]
  phytotoxicity: no significant phytotoxicity

## CC(C)C(C)(C)NC(=O)c1ccoc1Cl [Compound 10]
  phytotoxicity: no significant phytotoxicity

## Cc1occc1C(=O)NC(C)C1CC1 (stereo not shown) [Compound 6]
  phytotoxicity: no significant phytotoxicity

## CC(C)C(C)NC(=O)c1ccoc1Cl (stereo not shown) [Compound 26]
  phytotoxicity: no significant phytotoxicity

## C[C@@H](NC(=O)c1ccoc1Br)C1CC1 [Compound 74]
  phytotoxicity: no significant phytotoxicity

## CC(NC(=O)c1ccoc1Br)C1CC1 (stereo not shown) [Compound 32]
  phytotoxicity: no significant phytotoxicity

## CC(NC(=O)c1ccoc1Cl)C1CCC1 (stereo not shown) [Compound 23]
  phytotoxicity: no significant phytotoxicity

## CCC(C)C(C)NC(=O)c1ccoc1C (stereo not shown) [Compound 1]
  phytotoxicity: no significant phytotoxicity

## CC(C)(NC(=O)c1ccoc1Cl)C1CC1 [Compound 8]
  phytotoxicity: no significant phytotoxicity

## CC(C)[C@H](C)NC(=O)c1ccoc1Cl [Compound 43]
  phytotoxicity: no significant phytotoxicity

## CC(NC(=O)c1ncsc1Br)C1CC1 (stereo not shown) [Compound 63]
  phytotoxicity: no significant phytotoxicity

## CC(NC(=O)c1ncsc1Cl)C1CC1 (stereo not shown) [Compound 62]
  phytotoxicity: no significant phytotoxicity

## CC(NC(=O)c1ccoc1Cl)C1CCCC1 (stereo not shown) [Compound 20]
  phytotoxicity: no significant phytotoxicity

## CC(NC(=O)c1sccc1C(C)(C)C)C(C)(C)C (single isomer, unassigned) [Compound 92]
  phytotoxicity: no significant phytotoxicity

## Cc1ccsc1C(=O)NC(C1CC1)C1CC1 [Compound 52]
  phytotoxicity: no significant phytotoxicity

## CC(C)[C@@H](C)NC(=O)c1ccoc1Cl [Compound 75]
  phytotoxicity: no significant phytotoxicity

## CSc1ccsc1C(=O)NC(C)C1CC1 (stereo not shown) [Compound 58]
  phytotoxicity: no significant phytotoxicity

## CC(C)C(C)NC(=O)c1ccoc1Br (stereo not shown) [Compound 33]
  phytotoxicity: no significant phytotoxicity

## CC(C)CCCC(C)NC(=O)c1ccoc1Cl (stereo not shown) [Compound 30]
  phytotoxicity: no significant phytotoxicity

## CC(NC(=O)c1ccoc1Cl)C1(C)CC1 (stereo not shown) [Compound 22]
  phytotoxicity: no significant phytotoxicity

## C[C@@H](NC(=O)c1ccoc1Cl)C1CC1 [Compound 45, 2-chloro-N-[(1R)-1-cyclopropylethyl]-3-furancarboxamide]
  phytotoxicity: no significant phytotoxicity

## Cc1occc1C(=O)NC(C)C(C)C (stereo not shown) [Compound 4]
  phytotoxicity: no significant phytotoxicity

## CC(NC(=O)c1ncsc1C(F)(F)F)C1CC1 (stereo not shown) [Compound 72]
  phytotoxicity: no significant phytotoxicity

## CC(NC(=O)c1sccc1Br)C1CC1 (stereo not shown) [Compound 50]
  phytotoxicity: no significant phytotoxicity

## Cc1occc1C(=O)N[C@@H](C)C1CC1 [Compound 37]
  phytotoxicity: no significant phytotoxicity

## CC(C)C(C)NC(=O)c1sccc1C(C)(C)C (stereo not shown) [Compound 89]
  phytotoxicity: no significant phytotoxicity

## CC(NC(=O)c1sccc1C(F)(F)F)C1CC1 (stereo not shown) [Compound 65]
  phytotoxicity: no significant phytotoxicity

## CCCC(C)NC(=O)c1ccoc1Cl (stereo not shown) [Compound 17]
  phytotoxicity: no significant phytotoxicity

## CCCCCC(C)NC(=O)c1ccoc1Cl (stereo not shown) [Compound 29]
  phytotoxicity: no significant phytotoxicity

## CC(NC(=O)c1ccoc1Cl)C(C)(C)C (stereo not shown) [Compound 27, 2-chloro-N-(1,2,2-trimethylpropyl)-3-furancarboxamide]
  phytotoxicity: no significant phytotoxicity

## Cc1occc1C(=O)N[C@@H](C)C(C)C [Compound 101]
  phytotoxicity: no significant phytotoxicity

## Cc1occc1C(=O)N(C)C(C)C1CC1 (stereo not shown) [Compound 2]
  phytotoxicity: no significant phytotoxicity

## Cc1ccsc1C(=O)NC(C)C(C)C (stereo not shown) [Compound 48]
  phytotoxicity: no significant phytotoxicity

## CCC(C)NC(=O)c1ccoc1Cl (stereo not shown) [Compound 16]
  phytotoxicity: no significant phytotoxicity

## Cc1occc1C(=O)N[C@H](C)C(C)C [Compound 96]
  phytotoxicity: no significant phytotoxicity
